Test results as given in PMC10477886, “Adamantaniline Derivatives Target ATP5B to Inhibit Translation of Hypoxia Inducible Factor‐1α” (Advanced Science, 2023).

System: HIF‐1α transcriptional activity
Assay: dual‐luciferase assay (HRE‐Firefly Luciferase / renilla) of HIF‐1α transcriptional activity in HEK293T cells
Type: cell-based, human
Conditions: Homo sapiens, HEK-293T, mean ± s.d. (n = 3); for inhibition at 10 µM: incubation 24 h, HEK293T, read-out: Inhibition rate [%] @ 10 µM; for IC50: HEK293T dual‐luciferase
Source text: To screen HIF‐1α inhibitors in a robust cell‐based assay, we optimized the dual‐luciferase assay with pLenti‐HIF‐1αP2A (P402A and P564A) instead of pLenti‐HIF‐1α in order to ensure the expression of HIF‐1α under normoxia condition. In the cell‐based assay, HEK293T cells were co‐transfected with pLenti‐HIF‐1αP2A, renilla, and hypoxia‐responsive element (HRE)‐Firefly Luciferase (Figure S1, Supporting Information). […] Three compounds were selected as the positive controls including two inhibitors (PX‐478 2HCl and BAY 87‐2243) and an activator (BAY 85‐3934) in the screening assay.
HEK293T cells were stably transfected with reporter plasmids pGMLV‐HRE‐LUC‐puromycin, pMSCV‐renilla‐hygromycin, and pLenti‐HIF‐1αP2A‐neomycin. Stable cell line constructed above, 293‐HIF‐1αP2A‐HRE‐Fluc‐Rluc, were seeded in 384‐well plates and cultured in DMEM with 10% FBS. The following day, the cells were pretreated with indicated chemical compounds from the National Compound Library of the Shanghai Institute of Materia Medica, Chinese Academy of Sciences by Mosquito HTS. The plate was then placed in an incubator chamber and incubated at 37 °C for 24 h. The ratio of firefly/renilla luciferase activity was determined by using the Envision (PerkinElmer).
Stable cell line 293‐HRE‐Fluc‐Rluc expressed luciferase and renilla or HEK293T cells transfected with indicated plasmids (pGL3‐HRE‐luciferase and pSV40‐renilla) were seeded in a 96‐well plate. The cells were co‐incubated with indicated compounds for 24 h and luciferase activities were detected in Microplate Reader (BioTek SYNEGRY H1) using the Dual Luciferase Reporter Assay System Kit (Promega, USA E1910) according to the manufacturer's instruction. The relative Luc activity was normalized by renilla activity. Three independent experiments were performed, and the calculated means and SDs are presented.

| Compound | inhibition at 10 µM [%] | IC50 [nM] |
| --- | --- | --- |
| O=C(Nc1ccc(C23CC4CC(CC(C4)C2)C3)cc1)c1ccccc1C(F)(F)F [1‐3ad, N‐(4‐((3r,5r,7r)‐Adamantan‐1‐yl)Phenyl)−2‐(Trifluoromethyl)Benzamide] | 31.3 ± 3.3 |  |
| O=C(Nc1ccc(C23CC4CC(CC(C4)C2)C3)cc1)c1cccc(C(F)(F)F)c1 [1‐3ae, N‐(4‐((3r,5r,7r)‐Adamantan‐1‐yl)Phenyl)−3‐(Trifluoromethyl)Nenzamide] | 20.2 ± 1.5 |  |
| O=C(Nc1ccc(C23CC4CC(CC(C4)C2)C3)cc1)c1ccc(C(F)(F)F)cc1 [1‐3af, N‐(4‐((3r,5r,7r)‐Adamantan‐1‐yl)Phenyl)−4‐(Trifluoromethyl)Benzamide] | 37.9 ± 0.7 |  |
| O=C(Nc1ccc(C23CC4CC(CC(C4)C2)C3)cc1)c1ccc(N2CCOCC2)cc1 [1‐3ag, N‐(4‐((3r,5r,7r)‐Adamantan‐1‐yl)Phenyl)−4‐Morpholinobenzamide] | 41.6 ± 8.9 |  |
| O=C(Nc1ccc(C23CC4CC(CC(C4)C2)C3)cc1)c1ccc(N2CCCC2)cc1 [1‐3ah, N‐(4‐((3r,5r,7r)‐Adamantan‐1‐yl)Phenyl)−4‐(Pyrrolidin‐1‐yl)Benzamide] | 66.5 ± 0.9 |  |
| CCCCCCOc1ccccc1C(=O)Nc1ccc(C23CC4CC(CC(C4)C2)C3)cc1 [1‐3ai, N‐(4‐((3r,5r,7r)‐Adamantan‐1‐yl)Phenyl)−2‐(Hexyloxy)Benzamide] | 28.2 ± 5.5 |  |
| CCCCCCOc1cccc(C(=O)Nc2ccc(C34CC5CC(CC(C5)C3)C4)cc2)c1 [1‐3aj, N‐(4‐((3r,5r,7r)‐Adamantan‐1‐yl)Phenyl)−3‐(Hexyloxy)Benzamide] | 28.4 ± 6.9 |  |
| CCCCCCCCc1ccc(C(=O)Nc2ccc(C34CC5CC(CC(C5)C3)C4)cc2)cc1 [1‐3ak, N‐(4‐((1s,3s)‐Adamantan‐1‐yl)Phenyl)−4‐Octylbenzamide] | 32.5 ± 7.2 |  |
| O=C(CCCCBr)Nc1cccc(C(=O)Nc2ccc(C34CC5CC(CC(C5)C3)C4)cc2)c1 [1‐3al, N‐(4‐((1s,3s)‐Adamantan‐1‐yl)Phenyl)−3‐(5‐Bromopentanamido)Benzamide] | 89.5 ± 1.1 | 1000 ± 100 |
| CN1CCN(CCCCC(=O)Nc2cccc(C(=O)Nc3ccc(C45CC6CC(CC(C6)C4)C5)cc3)c2)CC1 [1‐3am, N‐(4‐((1s,3s)‐Adamantan‐1‐yl)Phenyl)−3‐(5‐(4‐Methylpiperazin‐1‐yl)Pentanamido)Benzamide] | 86.4 ± 0.9 | 1300 ± 200 |
| O=C(CCCCN1CCOCC1)Nc1cccc(C(=O)Nc2ccc(C34CC5CC(CC(C5)C3)C4)cc2)c1 [1‐3an, N‐(4‐((1s,3s)‐Adamantan‐1‐yl)Phenyl)−3‐(5‐Morpholinopentanamido)Benzamide] | 93.4 ± 0.5 | 370 ± 40 |
| O=C(CCCCBr)Nc1ccc(C(=O)Nc2ccc(C34CC5CC(CC(C5)C3)C4)cc2)cc1 [1‐3ao, N‐(4‐((3r,5r,7r)‐Adamantan‐1‐yl)Phenyl)−4‐(5‐Bromopentanamido)Benzamide] | 82.9 ± 2.4 | 2300 ± 500 |
| CN1CCN(CCCCC(=O)Nc2ccc(C(=O)Nc3ccc(C45CC6CC(CC(C6)C4)C5)cc3)cc2)CC1 [1‐3ap, N‐(4‐((3r,5r,7r)‐Adamantan‐1‐yl)Phenyl)−4‐(5‐(4‐Methylpiperazin‐1‐yl)Pentanamido)Benzamide] | 88.8 ± 0.2 | 1400 ± 500 |
| O=C(CCCCN1CCOCC1)Nc1ccc(C(=O)Nc2ccc(C34CC5CC(CC(C5)C3)C4)cc2)cc1 [1‐3aq, N‐(4‐((3r,5r,7r)‐Adamantan‐1‐yl)Phenyl)−4‐(5‐Morpholinopentanamido)Benzamide] | 69.5 ± 0.5 |  |
| CN(C)CCCC(=O)Nc1cccc(C(=O)Nc2ccc(C34CC5CC(CC(C5)C3)C4)cc2)c1 [1‐3ar, N‐(4‐((3r,5r,7r)‐Adamantan‐1‐yl)Phenyl)−3‐(4‐(Dimethylamino)Butanamido)Benzamide] | 79.4 ± 1.8 | 2100 ± 400 |
| C[N+](C)(C)CCCC(=O)Nc1cccc(C(=O)Nc2ccc(C34CC5CC(CC(C5)C3)C4)cc2)c1 [1‐3as, 4‐((3‐((4‐((3r,5r,7r)‐Adamantan‐1‐yl)Phenyl)Carbamoyl)Phenyl)Amino)‐N,N,N‐Trimethyl‐4‐Oxobutan‐1‐Aminium] | 76.4 ± 1.3 | 2500 ± 700 |
| CN(C)CCCC(=O)Nc1ccc(C(=O)Nc2ccc(C34CC5CC(CC(C5)C3)C4)cc2)cc1 [1‐3at, N‐(4‐((3r,5r,7r)‐Adamantan‐1‐yl)Phenyl)−4‐(4‐(Dimethylamino)Butanamido)Benzamide] | 90 ± 1.7 | 940 ± 20 |
| O=C(Nc1ccc(C23CC4CC(CC(C4)C2)C3)cc1)c1ccccc1Cl [1‐3b, N‐(4‐((3r,5r,7r)‐Adamantan‐1‐yl)Phenyl)−2‐Chlorobenzamide] | 58.4 ± 1.5 |  |
| O=C(Nc1ccc(C23CC4CC(CC(C4)C2)C3)cc1)c1ccc(Cl)cc1 [1‐3c, N‐(4‐((3r,5r,7r)‐Adamantan‐1‐yl)Phenyl)−4‐Chlorobenzamide] | 63.4 ± 5.4 |  |

| Compound | inhibition at 10 µM [%] | IC50 [nM] |
| --- | --- | --- |
| O=C(Nc1ccc(C23CC4CC(CC(C4)C2)C3)cc1)c1ccccc1Br [1‐3d, N‐(4‐((3r,5r,7r)‐Adamantan‐1‐yl)Phenyl)−2‐Bromobenzamide] | 52.3 ± 3.1 |  |
| O=C(Nc1ccc(C23CC4CC(CC(C4)C2)C3)cc1)c1cccc(Br)c1 [1‐3e, N‐(4‐((3r,5r,7r)‐Adamantan‐1‐yl)Phenyl)−3‐Bromobenzamide] | 86.3 ± 0.2 | 1400 ± 300 |
| O=C(Nc1ccc(C23CC4CC(CC(C4)C2)C3)cc1)c1ccc(Br)cc1 [1‐3f, N‐(4‐((3r,5r,7r)‐Adamantan‐1‐yl)Phenyl)−4‐Bromobenzamide] | 67.1 ± 5.1 |  |
| COc1ccccc1C(=O)Nc1ccc(C23CC4CC(CC(C4)C2)C3)cc1 [1‐3g, N‐(4‐((3r,5r,7r)‐Adamantan‐1‐yl)Phenyl)−2‐Methoxybenzamide] | 40.2 ± 2.1 |  |
| COc1cccc(C(=O)Nc2ccc(C34CC5CC(CC(C5)C3)C4)cc2)c1 [1‐3h, N‐(4‐((3r,5r,7r)‐Adamantan‐1‐yl)Phenyl)−3‐Methoxybenzamide] | 92.1 ± 0.6 | 820 ± 130 |
| COc1ccc(C(=O)Nc2ccc(C34CC5CC(CC(C5)C3)C4)cc2)cc1 [1‐3i, N‐(4‐((3r,5r,7r)‐Adamantan‐1‐yl)Phenyl)−4‐Methoxybenzamide] | 86 ± 1.4 | 1600 ± 300 |
| N#Cc1ccccc1C(=O)Nc1ccc(C23CC4CC(CC(C4)C2)C3)cc1 [1‐3j, N‐(4‐((3r,5r,7r)‐Adamantan‐1‐yl)Phenyl)−2‐Cyanobenzamide] | 41.8 ± 3.4 |  |
| N#Cc1cccc(C(=O)Nc2ccc(C34CC5CC(CC(C5)C3)C4)cc2)c1 [1‐3k, N‐(4‐((3r,5r,7r)‐Adamantan‐1‐yl)Phenyl)−3‐Cyanobenzamide] | 67.4 ± 3.8 |  |
| N#Cc1ccc(C(=O)Nc2ccc(C34CC5CC(CC(C5)C3)C4)cc2)cc1 [1‐3l, N‐(4‐((3r,5r,7r)‐Adamantan‐1‐yl)Phenyl)−4‐Cyanobenzamide] | 61.2 ± 5.5 |  |
| O=C(Nc1ccc(C23CC4CC(CC(C4)C2)C3)cc1)c1ccccc1O [1‐3m, N‐(4‐((3r,5r,7r)‐Adamantan‐1‐yl)Phenyl)−2‐Hydroxybenzamide] | 88.4 ± 0.2 | 510 ± 20 |
| O=C(Nc1ccc(C23CC4CC(CC(C4)C2)C3)cc1)c1ccc(O)cc1 [1‐3o, N‐(4‐((3r,5r,7r)‐Adamantan‐1‐yl)Phenyl)−4‐Hydroxybenzamide] | 96.4 ± 0.2 | 53 ± 8 |
| CC(C)(C)OC(=O)Nc1ccccc1C(=O)Nc1ccc(C23CC4CC(CC(C4)C2)C3)cc1 [1‐3p, Tert‐Butyl 2‐(2‐((4‐((3r,5r,7r)‐Adamantan‐1‐yl)Phenyl)Carbamoyl)Phenyl)Carbamate] | 40.3 ± 3.2 |  |
| CC(C)(C)OC(=O)Nc1cccc(C(=O)Nc2ccc(C34CC5CC(CC(C5)C3)C4)cc2)c1 [1‐3q, Tert‐Butyl (3‐((4‐((3r,5r,7r)‐Adamantan‐1‐yl)Phenyl)Carbamoyl)Phenyl)Carbamate] | 75.5 ± 0.3 | 3500 ± 200 |
| CC(C)(C)OC(=O)Nc1ccc(C(=O)Nc2ccc(C34CC5CC(CC(C5)C3)C4)cc2)cc1 [1‐3r, Tert‐Butyl (4‐((4‐((3r,5r,7r)‐Adamantan‐1‐yl)Phenyl)Carbamoyl)Phenyl)Carbamate] | 54.6 ± 1.6 |  |
| Nc1ccccc1C(=O)Nc1ccc(C23CC4CC(CC(C4)C2)C3)cc1 [1‐3s, N‐(4‐((3r,5r,7r)‐Adamantan‐1‐yl)Phenyl)−2‐Aminobenzamide] | 90.4 ± 1.7 | 540 ± 20 |
| Nc1cccc(C(=O)Nc2ccc(C34CC5CC(CC(C5)C3)C4)cc2)c1 [1‐3t, N‐(4‐((3r,5r,7r)‐Adamantan‐1‐yl)Phenyl)−3‐Aminobenzamide] | 97.3 ± 0.4 | 230 ± 30 |
| Nc1ccc(C(=O)Nc2ccc(C34CC5CC(CC(C5)C3)C4)cc2)cc1 [1‐3u, N‐(4‐((3r,5r,7r)‐Adamantan‐1‐yl)Phenyl)−4‐Aminobenzamide] | 98.4 ± 0.1 | 110 ± 10 |
| CC(=O)Nc1ccccc1C(=O)Nc1ccc(C23CC4CC(CC(C4)C2)C3)cc1 [1‐3v, 2‐Acetamido‐N‐(4‐((3r,5r,7r)‐Adamantan‐1‐yl)Phenyl)Benzamide] | 18.4 ± 2.2 |  |
